In experiment [1] the test system is mutant CALR Ba/F3 cell lines. Put plainly: 72 h dose response test, CellTiter-Glo cell viability assay. The format is cell-based, mouse. As to conditions: 72 h dose response test. A general note: Cellular ATP, detected with luciferase, serves as a proxy for viable cell number.
In the next experiment the test system is CALR expression (mRNA). Put plainly: Real-time PCR analysis of Ba/F3-MPL cell lines. The format is cell-based, mouse. The note with it: 20 uM, 24 h. The method, then: FIG. 19: Real-time PCR analysis of Ba/F3-MPL cell lines after a 24 h treatment with hematoxylin. Ba/F3-MPL CALR WT, CALR homozygous mutant del37/del37 cell line were treated with 20 uM hematoxylin or an equivalent amount of DMSO as control for 24 h before cell collection and RNA extraction. **P<0.01; ***P<0.001
1 million cells from each sample were collected and washed with PBS twice. RNA samples were extracted by using the RNeasy Mini Kit (Qiagen). Taqman® Gene Expression Assays (Mm01545399_m1) was used to quantify the expression of CALR, and the real-time PCR reaction was performed using a 7500 Fast Real-Time PCR machine (Applied Biosystems™). Statistical test was calculated by Graphpad Prism 7.0 using the two-tailed Student's t test.
In general terms: Quantitative PCR measures a nucleic acid by following its amplification.

For a further experiment, the system named is STAT5 phosphorylation. Briefly: Western blot time-course, Ba/F3-MPL CALR WT/del79. The experiment is classed as cell-based. As to conditions: 8-hour time point. As to the method:
(§1) 2 million Ba/F3-MPL CALR WT or mutant cells were treated with hematoxylin or the equivalent volume of DMSO in a total volume of 15 ml of RPMI media in T75 flasks (Thermal Fisher Scientific). Cells were collected and washed with PBS before being lysed in whole cell lysis buffer containing 20 mM HEPES, 20% glycerol, 50 mM KCl, 400 mM NaCl, 1 mM EDTA, 1 mM DTT, 5 mM Na orthovanadate, 0.5% NP40, 0.1% Tween 20, supplemented with cOmplete™, Mini, EDTA-free Protease Inhibitor Cocktail (Sigma) and PhosSTOP™ (Sigma). Samples were rotated at 4° C. for 20 min prior to centrifugation at […] for 20 min. The soluble fraction of the sample was collected. Protein concentration was quantified by the Bio-Rad Protein Assay (Bio-Rad) according to the manufacturer's instructions and measured by a SpectraMax Microplate Reader (Molecular Devices). Equal amounts of protein were loaded for 8% or 10% SDS-polyacrylamide gel electrophoresis prior to transfer to Amersham™ Protran® nitrocellulose membranes at 35V, 4° C. overnight. Membranes were then blocked by 5% bovine serum albumin fraction V (Sigma) or milk. Mutant calreticulin was detected by a polyclonal rabbit antibody against the mutant specific C-terminal peptide (Myelopro). […]

The next experiment has as its system PARP cleavage. Briefly: Western blot time-course, Ba/F3-MPL CALR WT/del79. The experiment is classed as cell-based. As to conditions: 8-hour time point. As to the method: as §1
In general terms: Immunoblotting shows a protein as a band on a membrane.

A further experiment deals with wild-type CALR protein (Homo sapiens, UniProt P27797). Put plainly: binding assay (data not shown).
Chain of wild-type CALR protein (P27797 18-417): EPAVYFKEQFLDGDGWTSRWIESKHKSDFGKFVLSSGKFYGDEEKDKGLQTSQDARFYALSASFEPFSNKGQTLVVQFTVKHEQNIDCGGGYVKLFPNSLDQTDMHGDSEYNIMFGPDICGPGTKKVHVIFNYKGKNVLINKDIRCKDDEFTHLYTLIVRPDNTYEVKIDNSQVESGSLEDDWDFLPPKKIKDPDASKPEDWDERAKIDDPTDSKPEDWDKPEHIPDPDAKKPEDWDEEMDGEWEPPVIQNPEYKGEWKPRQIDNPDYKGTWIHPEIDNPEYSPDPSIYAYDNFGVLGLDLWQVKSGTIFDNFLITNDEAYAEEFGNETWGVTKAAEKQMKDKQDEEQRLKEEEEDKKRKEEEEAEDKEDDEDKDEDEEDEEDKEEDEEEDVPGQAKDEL
Experiment [2] deals with Ba/F3-MPL cell lines carrying C-terminal truncated CALR. Briefly: cytotoxicity assay in cell lines with C-terminal truncated CALR. The format is cell-based, mouse. As to conditions: truncated CALR mutations vs disease frameshift. The method, then:
(§2) In order to further confirm the selective cytotoxicity of hematoxylin in CALR mutant cells, two-color competition assays were performed in both Ba/F3 and UT-7-TPO cells to assess the long-term efficacy of the compound (FIG. 9). […] The differential killing effect of hematoxylin could also be reproduced in the UT-7-TPO cell line. […] This reading frame encounters a stop codon shortly after the mutation and causes a truncation at the CALR C-terminus (FIG. 12). […] Moreover, CALR KO Ba/F3-MPL cell lines were tested for hematoxylin sensitivity.

For the next experiment, the target named is T1, mutant calreticulin (Homo sapiens, UniProt P27797).
T1 construct: CD34-positive cells isolated from a healthy control and a CALR ins5 mutant patient; endogenous in cells; host or cells: primary CD34-positive cells from a CALR ins5 mutant patient
T1 sequence (P27797 with tags, fused parts or gaps, stated change not applied): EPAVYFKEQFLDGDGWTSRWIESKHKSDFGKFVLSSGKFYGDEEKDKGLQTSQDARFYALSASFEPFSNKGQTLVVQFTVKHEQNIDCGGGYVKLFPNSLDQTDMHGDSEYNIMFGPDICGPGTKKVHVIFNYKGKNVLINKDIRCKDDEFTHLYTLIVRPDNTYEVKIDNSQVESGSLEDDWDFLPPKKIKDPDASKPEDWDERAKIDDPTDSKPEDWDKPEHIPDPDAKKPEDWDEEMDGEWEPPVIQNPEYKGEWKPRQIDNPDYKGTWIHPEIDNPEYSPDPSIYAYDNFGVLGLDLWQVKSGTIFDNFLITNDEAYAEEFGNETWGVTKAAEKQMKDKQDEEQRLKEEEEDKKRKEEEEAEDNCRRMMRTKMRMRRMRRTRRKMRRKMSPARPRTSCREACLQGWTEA
Briefly: Western blot analysis of CD34-positive cells from a CALR ins5 mutant patient. The arrangement: dose or concentration left out as unconfirmed. The format is cell-based. As to conditions: hematoxylin, 8 hours. The method, then:
as §1

In experiment [3] the test system is UT-7-TPO CALR del58/WT cells mixed with UT-7-TPO CALR WT cells. Put plainly: two-color competition assay, 12 days. The format is cell-based. The note with it: in the presence of TPO. The method, then: FIG. 11: Competition assay of hematoxylin treatment in UT-7-TPO cells. UT-7-TPO CALR WT (mCherry negative) and UT-7-TPO CALR del58/WT (mCherry positive) cells were mixed and underwent hematoxylin treatment for 12 days. Drug and cytokine were refreshed every 3 days. Percentage of mCherry positive cells were recorded by FACs.
To determine long-term viability, a two-color competition assay was used. Cell lines were transduced with pMSCV-IRES-GFP/mCherry construct, and the fluorescence-positive cells were sorted by a SH800Z Cell Sorter (Sony). GFP/mCherry-positive cell lines were mixed with their non-fluorescent control cells in a 1:1 ratio and underwent compound treatment for 3-12 days. Compounds and cytokines were refreshed every 3 days. Cell samples were analyzed at each time point by a BD LSRFortessa™ cell analyzer (BD Biosciences).

Experiment [4] deals with CALR KO Ba/F3-MPL cell lines. Briefly: hematoxylin sensitivity of CALR knockout cell lines. The experiment is classed as cell-based, mouse. The note with it: CALR KO vs CALR WT clones. The method, then: as §2

In the case of `Oc1cc2c(cc1O)[C@@H]1c3ccc(O)c(O)c3OC[C@]1(O)C2` [hematoxylin, Hematoxylin], the “reduction of IC50 in mutant CALR Ba/F3 cell lines compared with the wild-type cell line” value in experiment [1] is 3-5 fold. The “magnitude of change (up-regulation) of wild-type and mutant CALR mRNA expression” value in the experiment with CALR expression (mRNA) is “around 1.3 fold”. For the same compound, the STAT5 phosphorylation result with STAT5 phosphorylation is “decrease”. For the same compound, the “PARP cleavage (apoptotic marker)” value with PARP cleavage is “upregulation”. The “binding to wild-type CALR protein” value at wild-type CALR protein was “bound”. Besides, the “hypersensitivity towards compound treatment” value in [2] was “did not show hypersensitivity”. The “protein abundance of mutant calreticulin” value on mutant calreticulin is given as “drastically reduced”. Also, the “outgrowth of mutant cells from the cell population” value in experiment [3] is given as “inhibited the outgrowth of the mutant cells”. Further, the “hypersensitivity towards the treatment” value in experiment [4] is “did not show hypersensitivity”.

These data come from US12410185B2, “Compounds targeting mutant calreticulin” (MYELOPRO DIAGNOSTICS AND RESEARCH GmbH, priority 2018, dated 2025).
